Converted amounts (≈) assume the structure as drawn. “And” between values parts separate entries of the source, which are not always exact repeats. Equal entries are not always repeated.
Experiments:
Assay in all cases: ≥ marks a high value that may be exact or a test limit, other limits are often not marked, values filed in µg/mL are converted to µM
[1] = tested on: Candida albicans ATCC 2002
Bacillus pumilus = tested on: Bacillus pumilus
Bacillus cereus = tested on: Bacillus cereus
[2] = tested on: Staphylococcus aureus ATCC 2592
[3] = tested on: Acinetobacter calcoaceticus
Pseudomonas aeruginosa = tested on: Pseudomonas aeruginosa
[4] = tested on: Escherichia coli ATCC 25922
Shigella dysenteriae = tested on: Shigella dysenteriae
[5] = tested on: Enterococcus faecium ATCC 19434
[6] = tested on: Bacillus subtilis ATCC 6633
[7] = tested on: Escherichia coli ATCC 8739
[8] = tested on: Staphylococcus aureus ATCC 29213
[9] = tested on: Staphylococcus aureus NCTC 12493
[10] = tested on: Pseudomonas aeruginosa ATCC 9027
[11] = tested on: Pseudomonas aeruginosa ATCC 27853
[12] = tested on: Klebsiella pneumoniae ATCC 43816
[13] = tested on: Enterococcus faecium NTCC 12697
[14] = tested on: Klebsiella pneumoniae ATCC 13883
[15] = tested on: Salmonella enterica subsp. enterica serovar Typhimurium LT2
Bacillus subtilis = tested on: Bacillus subtilis
[16] = tested on: Staphylococcus aureus ATCC 8530
[17] = tested on: Staphylococcus aureus NCTC 10788
[18] = tested on: Proteus mirabilis CCUG 26767
[19] = tested on: Enterococcus faecalis ATCC 19433
Escherichia coli W160-37 = tested on: Escherichia coli W160-37
[20] = tested on: Enterococcus faecium ATCC 700221
[21] = tested on: Staphylococcus aureus ATCC 33591
[22] = tested on: Staphylococcus aureus ATCC 25923
[23] = tested on: Candida albicans ATCC 200955
Bacillus subtilis 168 = tested on: Bacillus subtilis 168
Staphylococcus aureus = tested on: Staphylococcus aureus
[24] = tested on: Candida parapsilosis Z150/119/IDE99
Escherichia coli B = tested on: Escherichia coli B
Candida krusei CK802/97 = tested on: Candida krusei CK802/97
[25] = tested on: Candida glabrata CG196/98IDE
[26] = tested on: Escherichia coli IFO 3301
[27] = tested on: Bacillus subtilis IFO 3336
Streptococcus pyogenes = tested on: Streptococcus pyogenes
[28] = tested on: Staphylococcus epidermidis
Proteus vulgaris = tested on: Proteus vulgaris
Salmonella typhimurium = tested on: Salmonella typhimurium
Escherichia coli = tested on: Escherichia coli

An MIC [1] of 0.702 µM (≈ 1.25 µg/mL), an MIC (Bacillus pumilus) of 1.4 µM (≈ 2.5 µg/mL) and an MIC (Bacillus cereus) of 16.8 µM (≈ 30 µg/mL) were found for `CC[C@H](C)[C@H](NC(=O)[C@@H]1CCCN1C(=O)[C@H](Cc1ccccc1)NC(=O)[C@@H](N)Cc1ccccc1)C(=O)N[C@H](C(=O)NCC(=O)N[C@@H](CCCCN)C(=O)N[C@@H](CC(C)C)C(=O)N[C@@H](CC(C)C)C(=O)N[C@@H](Cc1ccccc1)C(=O)NCC(=O)N[C@@H](CC(C)C)C(=O)N[C@@H](Cc1ccccc1)C(=O)NCC(=O)N[C@@H](CC(C)C)C(=O)N[C@@H](CC(C)C)C(N)=O)C(C)C` [FFPIVGKLLFGLFGLL] in this work. For the same compound, the MIC [2] was 1.4 µM (≈ 2.5 µg/mL), the MIC [3] was 16.8 µM (≈ 30 µg/mL) and the MIC (Pseudomonas aeruginosa) was 4.21 µM (≈ 7.5 µg/mL). The MIC [4] was 2.81 µM (≈ 5 µg/mL) and the MIC (Shigella dysenteriae) was 5.61 µM (≈ 9.99 µg/mL).

An MIC [1] of 1.56 µM (≈ 2.5 µg/mL), an MIC (Bacillus pumilus) of 4.68 µM (≈ 7.5 µg/mL) and an MIC (Bacillus cereus) of at least 46.8 µM were found for `CC[C@H](C)[C@H](NC(=O)[C@@H]1CCCN1C(=O)[C@H](CC(C)C)NC(=O)[C@@H](N)Cc1ccccc1)C(=O)N[C@H](C(=O)NCC(=O)N[C@@H](CCCCN)C(=O)N[C@@H](CC(C)C)C(=O)N[C@@H](CC(C)C)C(=O)N[C@@H](CO)C(=O)NCC(=O)N[C@@H](CC(C)C)C(=O)N[C@@H](CO)C(=O)NCC(=O)N[C@@H](CC(C)C)C(=O)N[C@@H](CO)C(N)=O)C(C)C` [FLPIVGKLLSGLSGLS] in this work. It also gave an MIC [2] of 1.56 µM (≈ 2.5 µg/mL), an MIC [3] of at least 37.5 µM and an MIC (Pseudomonas aeruginosa) of 1.56 µM (≈ 2.5 µg/mL). The MIC [4] was 3.12 µM (≈ 5 µg/mL) and the MIC (Shigella dysenteriae) was 12.5 µM (≈ 20 µg/mL).

An MIC [5] of at least 50.1 µM, an MIC [6] of at least 200 µM and an MIC [7] of at least 32 µM were found for `CC[C@H](C)[C@H](NC(=O)[C@H](CC(C)C)NC(=O)[C@@H]1CCCN1C(=O)[C@H](CC(C)C)NC(=O)[C@@H](N)Cc1ccccc1)C(=O)N[C@@H](CC(C)C)C(=O)N[C@@H](CCCN=C(N)N)C(=O)N[C@@H](CCCCN)C(=O)N[C@H](C(=O)N[C@H](C(=O)N[C@H](C(=O)N[C@@H](C)C(=O)N[C@@H](CC(C)C)C(N)=O)[C@@H](C)O)C(C)C)[C@@H](C)CC` [FLPLILRKIVTAL] in this work. It also gave an MIC [8] of 200 µM (≈ 300 µg/mL), an MIC [9] of 4 µM (≈ 5.98 µg/mL) and an MIC [10] of 128 µM (≈ 191 µg/mL). For the same compound, the MIC [11] was over 401 µM, the MIC [12] was at least 64 µM and the MIC [13] was 16 µM (≈ 23.9 µg/mL). For the same compound, the MIC [14] was at least 401 µM, the MIC [15] was at least 200 µM and the MIC (Bacillus subtilis) was at least 50.1 µM. For the same compound, the MIC [16] was at least 200 µM, the MIC [17] was 2 µM (≈ 2.99 µg/mL) and the MIC [4] was 200 µM (≈ 300 µg/mL). The MIC [18] was at least 401 µM, the MIC [19] was at least 100 µM and the MIC (Escherichia coli W160-37) was at least 100 µM.

An MIC [20] of 9.5 µM (≈ 11.2 µg/mL), an MIC [21] of 9.5 µM (≈ 11.2 µg/mL) and an MIC [11] of 28.4 µM (≈ 33.6 µg/mL) were found for `CC[C@H](C)[C@H](NC(=O)[C@H](Cc1c[nH]c2ccccc12)NC(=O)[C@H](CCCCN)NC(=O)[C@H](CC(C)C)NC(=O)[C@H](CC(C)C)NC(=O)CN)C(=O)N[C@@H](CCCCN)C(=O)N[C@H](C(=O)N[C@@H](CC(C)C)C(=O)N[C@@H](CC(C)C)C(N)=O)[C@@H](C)O` [GLLKWIKTLL] in this work. For the same compound, the MIC [22] was 1.69 µM (≈ 2 µg/mL) and the MIC [23] was 28.4 µM (≈ 33.6 µg/mL).

In the case of `CC[C@H](C)[C@H](NC(=O)[C@H](CC(C)C)NC(=O)[C@H](Cc1cnc[nH]1)NC(=O)CNC(=O)[C@H](CC(C)C)NC(=O)[C@@H](NC(=O)[C@H](CCCCN)NC(=O)[C@H](CCCCN)NC(=O)[C@H](Cc1c[nH]c2ccccc12)NC(=O)[C@H](CCSC)NC(=O)CN)[C@@H](C)CC)C(=O)N[C@@H](CCCN=C(N)N)C(N)=O` [GMWKKILGHLIR], the MIC (Bacillus subtilis 168) is reported as 0.9 µM (≈ 1.31 µg/mL), the MIC (Staphylococcus aureus) is reported as 8.4 µM (≈ 12.2 µg/mL) and the MIC [24] is reported as 30 µM and 15 µM. The MIC (Escherichia coli B) was 1.8 µM (≈ 2.61 µg/mL), the MIC (Pseudomonas aeruginosa) was 16.3 µM (≈ 23.6 µg/mL) and the MIC (Candida krusei CK802/97) was 30 µM and 15 µM and 20 µM. For the same compound, the MIC [25] was ≥ 40 µM and 25 µM and 30 µM.

An MIC [26] of 5.62 µM (≈ 10 µg/mL) and an MIC [27] of 5.62 µM (≈ 10 µg/mL) were found for `NC(N)=NCCC[C@H](NC(=O)[C@H](Cc1cnc[nH]1)NC(=O)[C@H](CCCN=C(N)N)NC(=O)[C@H](Cc1cnc[nH]1)NC(=O)[C@H](CCCN=C(N)N)NC(=O)[C@H](Cc1cnc[nH]1)NC(=O)[C@H](CCCN=C(N)N)NC(=O)[C@H](Cc1cnc[nH]1)NC(=O)[C@H](CCCN=C(N)N)NC(=O)[C@H](Cc1cnc[nH]1)NC(=O)[C@@H](N)CCCN=C(N)N)C(=O)N[C@@H](Cc1cnc[nH]1)C(=O)O` [RHRHRHRHRHRH] in this work.

An MIC [26] of at least 827 µM and an MIC [27] of at least 827 µM were found for `NC(N)=NCCC[C@H](NC(=O)[C@H](Cc1cnc[nH]1)NC(=O)[C@@H](N)CCCN=C(N)N)C(=O)N[C@@H](Cc1cnc[nH]1)C(=O)O` [RHRH] in this work.

An MIC (Streptococcus pyogenes) of at least 64 µM, an MIC [28] of at least 64 µM and an MIC (Proteus vulgaris) of at least 64 µM were found for `CC[C@H](C)[C@H](NC(=O)[C@H](Cc1ccc(O)cc1)NC(=O)[C@@H](NC(=O)[C@@H]1CCCN1C(=O)[C@H](CCCN=C(N)N)NC(=O)[C@H](CC(N)=O)NC(=O)[C@H](CC(N)=O)NC(=O)CNC(=O)[C@@H]1CCCN1C(=O)[C@H](CCC(=O)O)NC(=O)[C@H](C)NC(=O)[C@H](CCC(=O)O)NC(=O)[C@@H]1CCCN1C(=O)[C@H](CCC(=O)O)NC(=O)[C@H](C)NC(=O)[C@H](CCC(=O)O)NC(=O)[C@H](CCCN=C(N)N)NC(=O)[C@@H](N)CCCN=C(N)N)C(C)C)C(=O)N1CCC[C@H]1C(=O)N[C@@H](CCC(N)=O)C(=O)N1CCC[C@H]1C(=O)N[C@@H](CCCN=C(N)N)C(=O)N1CCC[C@H]1C(=O)N1CCC[C@H]1C(=O)N[C@@H](Cc1cnc[nH]1)C(=O)N1CCC[C@H]1C(=O)N[C@@H](CCCN=C(N)N)C(=O)N[C@@H](CC(C)C)C(=O)O` [RREAEPEAEPGNNRPVYIPQPRPPHPRL] in this work. The MIC (Bacillus subtilis) was at least 64 µM, the MIC (Pseudomonas aeruginosa) was 64 µM (≈ 210 µg/mL) and the MIC (Salmonella typhimurium) was 2 µM (≈ 6.55 µg/mL). It also gave an MIC (Escherichia coli) of 64 µM (≈ 210 µg/mL).

— DBAASP
